{"source": "patent US20170215432A1", "about": "“SYNERGIZED PLANT EXTRACT/ESSENTIAL OIL BLEND COMPRISING BASIL OIL” (VAMA INC., priority 2014, published 2017)", "test_system": "Anopheles, Aedes, Stephinsi and Culex mosquito vectors", "experiment": "Laboratory cage repellency, landing counts on treated sugar-soaked cotton bowls", "format": "in vivo", "description": "Studies were carried out against each individual species in replicates of three in each of the replicate cage, one hundred 3 to 5-day old sugar—fed female mosquitoes were held. Mosquito that are pre-starved for 4 hr or more prior to testing were used for the experiment.\nFive plastic bowls with sugar—soaked cotton (10% in water) were placed at four opposing corners and one in the middle of the cage. These bowls were treated with the specified concentration of the composition described in Example 3, one specified concentration of DEET (know synthetic repellent compound as positive control) and one with only sugar-soaked cotton (Negative control). The four treated bowls were placed in four opposing corners while the untreated negative control in the middle on the floor of the cage. Five-minute landing counts were made at 0, 1, 2, 3, 4, and 6 hours with the cups were removed between the exposure intervals. Mean percent repellency for each percent formulation and species was calculated based on the data of the three replicates at the given times of observation."}
{"smiles": "CCN(CC)C(=O)c1cccc(C)c1", "note": "[DEET]", "values": [{"measurement": "mosquitoes repelled with reference to the control", "setting": "after 4 hrs", "value": 79, "unit": "%"}, {"measurement": "mosquitoes repelled", "setting": "in 4 hrs", "value": 97, "unit": "%"}]}
